{
  "source": "patent US20230242669A1",
  "about": "“ANTIBODY THAT BINDS ERBB-2 AND ERBB-3” (Merus N.V., priority 2014, published 2023)",
  "key": {"[1]": {"system": "HRG mediated phosphorylation in N87 and SKBR-3 cells", "assay": "Western blot of HRG stimulated cells", "assay_type": "cell-based, human", "conditions": "5 nM antibody, 100 ng/ml HRG, 1-24 hours", "protocol": "Cells of an exponentially grown culture were harvested and seeded in 10 cm dishes (20×10^6 cells for N87 and 7×10^6 cells for SKBR-3) in starvation medium (N87 cells: RPMI-1640, 0.05% BSA, 10 µg/ml Holo-transferrin; SKBR-3 cells: DMEM/F-12, 2 mM L-glutamine, 0.05% BSA, 10 µg/ml Holo-transferrin). The next day, antibodies were added to a final concentration of 5 nM and cells were incubated for one hour. HRG was then added to a final concentration of 100 ng/ml. After 1, 3, 6 or 24 hours, dishes were placed on ice, cells were washed twice with cold PBS, transferred to Eppendorf tubes and lysed with 250 µl of RIPA lysis buffer (20 mM Tris-HCl pH 7.5, 150 mM NaCl, 1 mM Na2EDTA, 1 mM EGTA, 1% NP-40, 1% sodium deoxycholate, 0.1% SDS, 2.5 mM sodium pyrophosphate, 1 mM beta-glycerophosphate, 1 mM Na3VO4, 1 µg/ml leupeptin). Lysis was allowed to proceed for 30 minutes on ice. Cell lysates were centrifuged and supernatants were collected in new Eppendorf tubes. Protein concentration was determined using the BCA method (Pierce). […] Membranes were blocked for one hour with TBS-T containing 5 % BSA and stained with the indicated antibodies according to the manufacturer’s instructions (Cell Signaling Technology). Membranes were then incubated with a HRP-conjugated secondary antibody, incubated with ECL substrate and subjected to autoradiography using X-ray films (Amersham). […]"}, "[2]": {"system": "human stem cell derived cardiomyocytes", "assay": "Cardiomyocyte viability under doxorubicin stress", "assay_type": "cell-based", "conditions": "3 µM doxorubicin, 10 ng/ml HRG; monospecific antibodies 68 nM", "method": "Human stem cell derived cardiomyocytes (Pluriomics BV) were seeded at a concentration of 20.000 well in white flat-bottom assay plates (corning 655098). On day 5 of culture the medium was replaced for glucose and galactose free culture medium supplemented with 10 ng/ml HRG. On day 7 test antibodies were added in combination with doxorubicin (3 µM). Cell viability was assayed on day 9 using the Promega Cell titer Glo assay."}, "[3]": {"system": "N87 cells", "assay": "HRG driven N87 proliferation assay", "assay_type": "cell-based, human", "protocol": "Upregulation of NRG1-β1 is a key resistance mechanism against HER2 targeted therapies (Wilson, 2012). […] N87 cells were cultured in RPMI 1640 supplemented with 10% heat inactivated FBS. For the proliferation assay subconfluent cell cultures of N87 cells were washed with PBS trypsinized and trypsin was inactivated by adding culture medium. Cells were washed twice in large volumes of assay medium (RPMI 1640 medium containing 0.05% BSA and 10 µg/ml Holo Transferrin). Antibodies were diluted in a semi-log titration that varied from 1-0.0001 µg/ml. Cells were added at a density of 10000 cells/well in the presence of 100 ng/ml final concentration of HRG. The cells were cultivated for 3 days at 37° C., 5% CO2, in 95% relative humidity. ALAMAR BLUE™ (INVITROGEN®) was added according to the manufacturer’s instructions and incubated for 6 hours at 37° C., 5% CO2, in 95% relative humidity in the dark. Fluorescence was measured at 550 nm excitation with 590 nm emission wavelength.\nUpregulation of NRG 1-β1 is a key resistance mechanism against HER2 targeted therapies (Wilson, 2012). […] To this aim N87 cells were cultured in RPMI 1640 supplemented with 10% heat inactivated FBS. […] Fluorescence was measured at 550 nm excitation with 590 nm emission wavelength."}, "[4]": {"system": "HRG mediated phosphorylation in N87 and SKBR-3 cells", "assay": "PathScan RTK / intracellular signaling antibody arrays", "assay_type": "cell-based, human", "conditions": "5 nM antibody, 100 ng/ml HRG", "protocol": "Cells of an exponentially grown culture were harvested and seeded in 6 well plates (3.75 ×10^6 cells for N87 and 1.5×10^6 cells for SKBR-3) in starvation medium (N87 cells: RPMI-1640, 0.05% BSA, 10 µg/ml Holo-transferrin; SKBR-3 cells: DMEM/F-12, 2 mM L-glutamine, 0.05% BSA, 10 µg/ml Holo-transferrin) and incubated incubated overnight at 37° C., 5% CO2, in 95% relative humidity. The next day, antibodies were added to a final concentration of 5 nM and cells were incubated for one hour at 37° C., 5% CO2, in 95% relative humidity. HRG was then added to a final concentration of 100 ng/ml. After 1, 3, 6 or 24 hours at 37° C., 5% CO2, in 95% relative humidity, plates were placed on ice, cells were washed twice with cold PBS. Subsequently 0.3 ml ice-cold lysis buffer was added (Cell signaling RTK # 9803 or IC # 7018) and cells were lysed for a minimum of 30 minutes on ice. Next, protein concentrations were measured using BCA (Pierce #23235). Protein concentrations were adjusted to 2 mg/ml with lysis buffer. Next, lysates were applied to PathScan RTK Signaling Antibody Arrays (Cell signaling #7949) or PathScan Intracellular Signaling Antibody Arrays. All incubations were performed with sealed wells on an orbital shaker at room temperature. Lysates (75 µl) were diluted 2 times to […] concentration with 75 µl Array Diluent Buffer supplemented with protease inhibitor cocktail and kept on ice. Array wells were blocked with 100 µl Array block buffer for 15 minutes. Block buffer was removed and Lysates were applied to the wells and allowed to incubate for 2 hours. Lysate was aspirated and wells were washed 4 times with 100 µl Wash buffer. Next, 100 µl detection antibody cocktail was added per well and incubated for 1 hour. Antibody cocktail was aspirated and wells were washed 4 times with 100 µl Wash buffer. 75 µl DYLIGHT80™ Streptavidin was added to each well. DYLIGHT80™ Streptavidin was aspirated and wells were washed 4 times with 100 µl Wash buffer. […] Spot fluorescence intensity was calculated using Image Studio software."}},
  "data": [
    {"substance": "PB4188: bispecific HER2xHER3 IgG: HER2 arm MF3958, HER3 arm MF3178", "values": [
      {"measurement": "HER3 phosphorylation", "setting": "[1]", "value": "prolonged inhibition of HER3 phosphorylation"},
      {"measurement": "Cardiomyocyte viability (ATP)", "setting": "[2]", "value": "unaffected"},
      {"measurement": "Anti-proliferative activity on N87", "setting": "[3]; 100 ng/ml HRG", "value": "superior activity over anti-HER2 or anti-HER3 monoclonal antibodies"},
      {"measurement": "Anti-proliferative activity on N87 versus PG3178", "setting": "[3]; increasing HRG 0.04-39.5 nM", "value": "superior activity compared to the parental anti-HER3 monoclonal antibody"},
      {"measurement": "ERK and S6 phosphorylation", "setting": "[4]", "value": "strong inhibition"},
      {"measurement": "HER2 phosphorylation", "setting": "[4]", "value": "does not inhibit phosphorylation of HER2"},
      {"measurement": "AKT phosphorylation", "setting": "[4]; first 6H", "value": "completely blocks AKT phosphorylation"}
    ]}
  ]
}
